Laboratory results reported in article PMC7837296, “A novel LysR‐type regulator negatively affects biosynthesis of the immunosuppressant brasilicardin” (Engineering in Life Sciences, 2020).

What was measured:
LysRNt (LysRNtHis6) [1] = target: T1, LysRNt (LysRNtHis6) (Nocardia terpenica, UniProt A0A164MN72); experiment: fluorescence thermal shift, SYPRO Orange; type: binding; conditions: read-out: dTmD at 0.6 mM
T1 construct: gene AWN90_33365; full length, C-terminal His6 tag kept (pET-21a(+)lysRNt), E. coli Rosetta 2(DE3), Talon column; only monomer seen; re-annotated start (not the N-terminally extended lysRlnNt)
T1 sequence (A0A164MN72 1-303): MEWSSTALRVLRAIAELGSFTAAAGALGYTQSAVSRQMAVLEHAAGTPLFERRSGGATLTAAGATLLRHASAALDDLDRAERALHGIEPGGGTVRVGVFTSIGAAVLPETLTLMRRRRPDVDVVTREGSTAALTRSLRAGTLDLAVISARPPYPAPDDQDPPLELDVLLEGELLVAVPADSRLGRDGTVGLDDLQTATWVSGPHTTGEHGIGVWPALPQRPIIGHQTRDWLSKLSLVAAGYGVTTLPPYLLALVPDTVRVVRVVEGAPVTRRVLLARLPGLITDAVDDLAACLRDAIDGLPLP

LysRNt (LysRNtHis6) [2] = target: T1, LysRNt (LysRNtHis6); experiment: EMSA with […]-labelled bra12p DNA; type: binding; conditions: 500 nM protein, PBS, 1% ethanol

SMILES	ΔTm at 600 µM (LysRNt (LysRNtHis6) [1])	% DNA-protein complex remaining at 1 mM (LysRNt (LysRNtHis6) [2]; weak effect)	% DNA-protein complex remaining at 1 mM (LysRNt (LysRNtHis6) [2]; compound lowers DNA binding)
O=C(O)c1ccccc1 [compound 2, sodium benzoate]	0.19 °C	84%	–
O=C(O)c1ccccc1O [compound 4, salicylic acid]	0.74 °C	–	47%
O=C(O)c1cccc(O)c1 [compound 5, 3-hydroxybenzoic acid]	0.17 °C	86%	–
